Laboratory results published in patent EP3748362A1, “IN VITRO METHOD FOR DETECTING RENAL DISEASE” (Fundacion Instituto De Investigacion Sanitaria Fundacion …, priority 2019, dated 2020).

Columns and labels:
[1] = tested on: CIAP1-TRAF3 complexes; test: TRAF3 immunoprecipitation (ubiquitin-Lys-48, CIAP1) in PBMCs from ESRD patients; assay type: in vivo, human
Description: Intracellular protein and mRNA levels were measured in PBMCs from ESRD patients on hemodialysis. Inclusion criteria were as follows: age >45 years; male sex; informed consent; and absence of active inflammatory, infectious, or malignant diseases at the initiation or during the study. This study was approved by the IIS-Fundación Jiménez Diaz Ethics Committee. Patients were enrolled after providing written informed consent. PBMCs were separated from whole blood samples (30 ml into EDTA tubes) by a density gradient centrifugation method using Ficoll density gradient centrifugation. In total, 50x10^6 of PBMCs were obtained from 30 ml of whole blood and 6x10^6 PBMCs were used to isolate protein, RNA and nuclear/cytosolic protein levels using the NE-PER Reagent (Pierce) following the manufacturer's instructions.
(§1) Cells growing in tissue culture dish plates, were lysed in 300-500 µl Triton-NP-40 lysis buffer [50 mmol/L Tris-HCl pH 8, 150 mmol/L NaCl, 1 mmol/L phenylmethylsulphonylfluoride, 1% NP-40/IGEPAL, and a phosphatase-inhibitor cocktail (Set II, Calbiochem)], scraped off the dish and incubated 1 hour to 4°C with shaking. Cell lysates were precleared by incubating with 10 µl protein A-agarose bead slurries (0.5 mL agarose/2 mL phosphate-buffered saline) for 30 min at 4°C, and then centrifuged three times for 5 minutes at 2500 rpm, to wash supernatants. […]

[2] = tested on: CIAP1-TRAF3 complex; test: TRAF3 immunoprecipitation (ubiquitin-Lys-48, CIAP1) in TWEAK-stimulated HK2 cells; assay type: cell-based, Human; details: TWEAK 100 ng/ml, paricalcitol 15 umol/L
Description: Human kidney proximal tubule epithelial cells (HK2 cell line, ATCC CRL-2190) were grown in RPMI 1640 with 10% fetal bovine serum (FBS), 1% glutamine, 100 U/ml penicillin, 100 µg/ml streptomycin, 5 µg/ml insulin-transferrin-selenite and 36 ng/ml hydrocortisone in 5% CO2 at 37° C. When cells reached 60 to 70% confluence, they were serum-depleted for 24 hours before the experiment.
Cells were stimulated with 100ng/ml recombinant human soluble TWEAK (Millipore) or p-200 µg/ml cresyl-sulfate (Raymond Vanholder and Griet Glorieux, University of Gent, Belgium). Concentrations of TWEAK and p-cresyl-sulfate were based on previously published dose-response experiments (Poveda et al. 2014; Sanz et al. 2008). […] DMSO, used as a solvent in some cases, had no effect on cell viability or on gene expression levels.
as §1

[3] = tested on: NF-κB 1 pathway; test: Canonical NF-κB1 activation in TWEAK-stimulated PBMCs from healthy donors; assay type: cell-based, Human; details: 12 µM paricalcitol, TWEAK 100 ng/ml, phosphorylated p65
[4] = tested on: renal inflammation induced by folic acid; test: Renal inflammatory cell infiltration, folic acid-induced renal injury in mice; assay type: in vivo; details: folic acid 300 mg/kg model; paricalcitol 25 µg/kg/day i.p.; anti-F4/80 and anti-CD3 immunohistochemistry
Description: (§2) All animal procedures were performed according to the guidelines of animal research in the European Community and with prior approval by the Ethics Committee of the Health Research of the IIS-Fundacion Jiménez Díaz. For in vivo studies, mice received a daily intraperitoneal injection of the VDRA Paricalcitol starting 48 hours prior to induction of kidney damage.
At the time of sacrifice, animals were anesthetized with 5 mg/kg xylazine (Rompun, Bayer AG) and 35 mg/kg ketamine (Ketolar, Pfizer) and the kidneys perfused in situ with cold saline before removal. Then, kidney portions were fixed in formalin buffer for immunohistochemistry studies or immediately frozen in liquid nitrogen for gene and protein studies.
Folic acid nephropathy is a classical model of kidney tubulointerstitial injury and inflammation that has been reported in humans. Mice received a single intraperitoneal injection of folic acid (Sigma) 300 mg/kg in 0.3 mol/l sodium bicarbonate or vehicle, and were sacrificed 48 hours later. […]
Paraffin-embedded kidney sections (3 µm) were stained using conventional methods. […] For each sample (processed by duplicate in a blinded manner), the average value was obtained from the analysis of 4 fields (20X objective) as density/mm2 or percentage stained area vs total analyzed area. Data are expressed as fold increase over control mice, as mean ± SEM of 8-10 animals per group. […]

[5] = Renal function (serum BUN), folic acid-induced renal injury in mice; assay type: in vivo; details: folic acid 300 mg/kg model; paricalcitol 25 µg/kg/day i.p.
Description: as §2
Folic acid nephropathy is a classical model of kidney tubulointerstitial injury and inflammation that has been reported in humans. Mice received a single intraperitoneal injection of folic acid (Sigma) 300 mg/kg in 0.3 mol/l sodium bicarbonate or vehicle, and were sacrificed 48 hours later. Two groups were studied; untreated or paricalcitol treated (25 µg/kg/day, i.p., Abbot), n=7-8 per group starting 48 hours before FA injection. The dose of paricalcitol was chosen based on dose-finding preliminary experiments.

## C[C@H](/C=C/[C@H](C)C(C)(C)O)[C@H]1CC[C@H]2/C(=C/C=C3C[C@@H](O)C[C@H](O)C3)CCC[C@]12C [paricalcitol]
[1]; PBMCs of paricalcitol-treated ESRD patients, TRAF3 immunoprecipitation
  TRAF3 ubiquitination and CIAP1-TRAF3 interaction: significantly lowering to values in the range of healthy controls
[1]; whole protein extracts of PBMCs, paricalcitol-treated ESRD patients
  CIAP-1 levels: close to control values
[2]
  TRAF3 ubiquitination and CIAP1-TRAF3 complex formation: prevented
[3]
  canonical NF-κB 1 pathway: without modulating
[4]
  renal inflammatory cell infiltration: prevented
[5]
  renal function assessed by serum BUN levels: restored changes in renal function
